From US4482560A, “Carbostyril derivatives, and antihistaminic agents containing the same” (priority 1979, dated 1984)
Counter-ions that a name gives are not always drawn. Like-named read-outs stand apart in the source and are kept apart here.

Key:
[1] = system: Male mice of ddy-strain; assay: Halothane anesthesia increasing activity; format: in vivo, mouse; settings: for Halothane anesthesia increasing activity / central nervous controlling effect in words: compared with control (physiological saline solution); for Time (minutes) between introduction of anesthesia and waking (righting reflex): oral, 32 mg/kg, 1 hour before 4% Halothane for 3 minutes, male ddy mice, saline control 4.2
Method: Male mice of ddy-strain having about 20 g body weight were used. One test group consists of 10 mice. An aqueous Gummi Arabicum suspension of test compound (80 mg of a compound to be tested and 1 g of Gummi Arabicum/100 ml of physiological NaCl solution) was administered orally to each mouse at the dosage of 32 mg of test compound/kg body. One hour after the administration, each mouse was placed in gas respiration chamber (13×13×24 cm) and oxygen gas containing 4% of Halothane [2-bromo-2-chloro-1,1,1-trifluoroethane] was blown into the chamber at the velocity of 2 l/min for 3 minutes. A mouse anaesthetized was taken out from the chamber and the time between the introduction of anesthesia to waking was measured by righting reflex as the index. To mice of control group, 1% Gummi Arabicum aqueous physiological solution was orally administered at the dosage of 0.1 ml/kg body. (Reference: M. J. Turnbull and J. W. Watkins: Br. J. Pharmacol., 58, 27-35 (1976))

[2] = molecular target: ileum of a guinea pig (Cavia porcellus, UniProt P31389); assay: cell-based
Method: Pharmacological tests of the present compounds were conducted according to said method as follows:
A male guinea pig having 300 to 500 g body weight is killed by blood letting. An ileum having length of 15 cm being enucleated from the ileocecal region is dipped into Tyrode's solution (which is prepared from 8.0 g of NaCl, 0.2 g of KCl, 0.2 g of CaCl2, 1.0 g of glucose, 1.0 g of NaHCO3, 0.065 g of NaHPO4.2H2 O and 0.2135 g of MgCl2.6H2 O to make 1000 ml in total volume by adding water). Then the tissue of ileum is cut to a length of 2.5 to 3.0 cm and suspended in an organ bath filled with 30 ml of Tyrode's solution. The organ bath is kept a temperature of 36° C. while blowing a mixed gas consisting of 5% of CO2 and 95% of O2 into the bath. 10 Minutes after the blowing, 10^-6 M of histamine is added to the bath to examine the sensitivity of the tissue and a reaction curve (control) with respect to the dosage of histamine is obtained. After the dosage of histamine-reaction curve (control) become constant 10^-6 g/ml of a compound to be tested is added to the bath and further histamine is added 5 minutes later to obtain dosage-reaction curve. Retraction of the ileum is recorded on a pen-recorder through an isotonic transducer (TD-112S manufactured by Nihon Koden).

[3] = Acute toxicity test; settings: rat, in vivo; oral, male rats
From the text: Each of the compounds of the present invention was orally administered to male rats to determine the acute toxicity.

[4] = histamine-induced retraction of guinea pig ileum, test compound 10^-6 g/ml, 36° C., Van Rossam method
[5] = histamine-induced retraction of guinea pig ileum, test compound 10^-6 g/ml, 36° C., Van Rossam method, read-out: pA2 (converted)

Sequence of ileum of a guinea pig (P31389 whole entry): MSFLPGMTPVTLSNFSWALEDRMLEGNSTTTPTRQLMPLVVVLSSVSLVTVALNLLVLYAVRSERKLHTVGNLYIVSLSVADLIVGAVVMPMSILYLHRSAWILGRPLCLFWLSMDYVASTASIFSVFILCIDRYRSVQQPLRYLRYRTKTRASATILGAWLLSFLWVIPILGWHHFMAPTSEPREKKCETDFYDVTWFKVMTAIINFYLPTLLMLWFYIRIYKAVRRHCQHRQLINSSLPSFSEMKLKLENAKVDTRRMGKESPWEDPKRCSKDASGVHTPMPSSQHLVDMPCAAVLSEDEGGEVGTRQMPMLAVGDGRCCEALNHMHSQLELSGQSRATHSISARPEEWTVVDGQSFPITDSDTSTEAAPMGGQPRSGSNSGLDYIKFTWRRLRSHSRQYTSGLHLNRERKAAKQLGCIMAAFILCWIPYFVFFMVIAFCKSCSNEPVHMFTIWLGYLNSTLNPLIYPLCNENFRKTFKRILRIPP

7-[4-β-Chlorophenyl)-1-piperazinylpropoxy]-carbostyril [reference compound]
Halothane anesthesia increasing activity / central nervous controlling effect in words [1]: different Halothane anesthesia increasing activity as compared with control | Time (minutes) between introduction of anesthesia and waking (righting reflex) [1]: 32.7 min

8-(2-Propionyloxy)-5-[2-hydroxy-3-(4-phenyl-1-piperazinyl)propoxy]-3,4-dihydrocarbostyril hydrochloride [Q, reference compound]
pA2 [2, 4]: 8.65 | Halothane anesthesia increasing activity / central nervous controlling effect in words [1]: different Halothane anesthesia increasing activity as compared with control | Time (minutes) between introduction of anesthesia and waking (righting reflex) [1]: 8.7 min

C#CCN1C(=O)CCc2c(OCCCN3CCC(Cc4ccccc4)CC3)cccc21.Cl [Compound 3, 1-Propargyl-5-[3-(4-benzyl-1-piperidyl)-propoxy]-3,4-dihydrocarbostyril monohydrochloride]
LD50 [3]: > 1000 mg/kg | Kb [2, 5]: 0.186 nM | Time (minutes) between introduction of anesthesia and waking (righting reflex) [1]: 5.1 min

CN1C(=O)CCc2c(OCCCN3CCC(Cc4ccccc4)CC3)cccc21.Cl [Compound 4, 1-Methyl-5-[3-(4-benzyl-1-piperidyl)propoxy]-3,4-dihydrocarbostyril monohydrochloride]
LD50 [3]: > 1000 mg/kg | Kb [2, 5]: 0.01 nM | Time (minutes) between introduction of anesthesia and waking (righting reflex) [1]: 4.2 min

Cc1cc(=O)[nH]c2cc(OCCCN3CCC(Cc4ccccc4)CC3)ccc12 [Compound 5, 4-Methyl-7-[3-(4-benzyl-1-piperidyl)propoxy]-carbostyril]
LD50 [3]: > 1000 mg/kg | Kb [2, 5]: 0.257 nM | Time (minutes) between introduction of anesthesia and waking (righting reflex) [1]: 4.6 min

C=CCN1C(=O)CCc2c(OCC(O)CN3CCC(Cc4ccccc4)CC3)cccc21.O=C(O)C(=O)O (stereo not drawn) [Compound 6, 1-Allyl-5-[2-hydroxy-(4-benzyl-1-piperidyl)-propoxy]-3,4-dihydrocarbostyril monooxalate]
LD50 [3]: > 1000 mg/kg | Kb [2, 5]: 0.288 nM | Time (minutes) between introduction of anesthesia and waking (righting reflex) [1]: 5.6 min

CCN1C(=O)CCc2c(OCC(O)CN3CCC(Cc4ccccc4)CC3)cccc21.O=C(O)C(=O)O (stereo not drawn) [Compound 7, 1-Ethyl-5-[2-hydroxy-3-(4-benzyl-1-piperidyl)-propoxy]-3,4-dihydrocarbostyril monooxalate]
LD50 [3]: > 1000 mg/kg | Kb [2, 5]: 0.224 nM | Time (minutes) between introduction of anesthesia and waking (righting reflex) [1]: 4.2 min

O=C1CCc2c(OCC(O)CN3CCC(Cc4ccccc4)CC3)ccc(Br)c2N1 (stereo not drawn) [Compound 8, 8-Bromo-5-[2-hydroxy-3-(4-benzyl-1-piperidyl)-propoxy]-3,4-dihydrocarbostyril]
LD50 [3]: > 1000 mg/kg | Kb [2, 5]: 4.07 nM | Time (minutes) between introduction of anesthesia and waking (righting reflex) [1]: 5.5 min

O=C(O)C(=O)O.O=C1CCc2c(OCC(O)CN3CCC(Cc4ccccc4)CC3)cccc2N1Cc1ccccc1 (stereo not drawn) [Compound 12, 1-Benzyl-5-[2-hydroxy-(4-benzyl-1-piperidyl)-propoxy]-3,4-dihydrocarbostyril monooxalate]
LD50 [3]: > 1000 mg/kg | Kb [2, 5]: 0.02 nM | Time (minutes) between introduction of anesthesia and waking (righting reflex) [1]: 4.2 min

O=C1CCc2c(cccc2OCCCN2CCC(O)(c3ccccc3)CC2)N1 [Compound 14, 5-{3-[4-(4-Hydroxy-4-phenyl)-1-piperidyl]}-3,4-dihydrocarbostyril]
LD50 [3]: > 1000 mg/kg | pA2 [2, 4]: 9.30 | Time (minutes) between introduction of anesthesia and waking (righting reflex) [1]: 5.1 min

CC(C(=O)c1cc(Cl)c2c(c1)CCC(=O)N2)N1CCN(c2ccccc2)CC1 (stereo not drawn) [Compound N, 8-Chloro-6-[α-(4-phenyl)-1-piperazinyl)-propionyl]-3,4-dihydrocarbostyril hydrochloride, reference compound]
Kb [2]: 617 nM

O=c1ccc2cccc(OCCCN3CCN(c4ccccc4)CC3)c2[nH]1 [F, 8-(4-Phenyl-1-piperazinylpropoxy)carbostyril, reference compound]
pA2 [2, 4]: 8.58 | Time (minutes) between introduction of anesthesia and waking (righting reflex) [1]: 9.5 min

O=c1ccc2ccc(OCCCN3CCN(c4ccccc4)CC3)cc2[nH]1 [G, 7-(4-Phenyl-1-piperazinylpropoxy)carbostyril, reference compound]
Time (minutes) between introduction of anesthesia and waking (righting reflex) [1]: 28.7 min

Cc1cc(=O)[nH]c2ccc(OCCCN3CCN(c4ccccc4)CC3)cc12 [H, 4-Methyl-6-(4-phenyl-1-piperazinylpropoxy)-carbostyril, reference compound]
Kb [2, 5]: 0.269 nM

Cc1cc(=O)[nH]c2cc(OCCCN3CCN(Cc4ccc(Cl)cc4)CC3)ccc12 [J, reference compound]
pA2 [2, 4]: 9.13 | Halothane anesthesia increasing activity / central nervous controlling effect in words [1]: different Halothane anesthesia increasing activity as compared with control | Time (minutes) between introduction of anesthesia and waking (righting reflex) [1]: 8.5 min

CC(C)(C)NCC(O)c1cc(Cl)c2c(c1)CCC(=O)N2 (stereo not drawn) [K, 8-Chloro-6-(1-hydroxy-2-tert-butylamino-ethyl)-3,4-dihydrocarbostyril monohydrochloride, reference compound]
Kb [2, 5]: 47900 nM

COc1ccc(CCNC(C)C(=O)c2cc(Cl)c3c(c2)CCC(=O)N3)cc1OC (stereo not drawn) [L, 8-Chloro-6-[α-(β-3,4-dimethoxyphenethyl-amino)propionyl]-3,4-dihydrocarbostyril monohydrochloride, reference compound]
Kb [2, 5]: 4790 nM

CC(C(O)c1cc(Cl)c2c(c1)CCC(=O)N2)N1CCN(c2ccccc2)CC1 (stereo not drawn) [M, 8-Chloro-6-[1-hydroxy-2-(4-phenyl-1-piperazinyl)propyl]-3,4-dihydrocarbostyril monohydrochloride, reference compound]
Kb [2, 5]: 6460 nM

COc1ccc(CCNC(C)C(O)c2cc(Cl)c3c(c2)CCC(=O)N3)cc1OC (stereo not drawn) [O, 8-Chloro-6-[1-hydroxy-2-(β-3,4-dimethoxy-phenethylamino)propyl]-3,4-dihydrocarbostyril hydrochloride, reference compound]
Kb [2, 5]: 1480 nM

CC(=O)Oc1ccc(OCC(O)CN2CCN(c3ccccc3Cl)CC2)c2c1NC(=O)CC2 (stereo not drawn) [P, 8-Acetyoxy-5-{2-hydroxy-3-[4-(2-chloro-phenyl)-1-piperazinyl]propoxy}-3,4-dihydrocarbostyril hydrochloride, reference compound]
Kb [2, 5]: 24 nM | Halothane anesthesia increasing activity / central nervous controlling effect in words [1]: different Halothane anesthesia increasing activity as compared with control | Time (minutes) between introduction of anesthesia and waking (righting reflex) [1]: 8.9 min

COc1ccc(N2CCN(CC(O)COc3ccc(OCc4ccccc4)c4c3CCC(=O)N4)CC2)cc1 (stereo not drawn) [R, Benzyloxy-5-{2-hydroxy-3-[4-(4-methoxy-phenyl)-1-piperazinyl]propoxy}-3,4-dihydrocarbostyril hydrochloride, reference compound]
pA2 [2, 4]: 9.57

COc1ccc(N2CCN(CC(O)COc3ccc(NC(N)=O)c4c3CCC(=O)N4)CC2)cc1.Cl (stereo not drawn) [S, 5-{2-Hydroxy-3-[4-(4-methoxyphenyl)-1-piperazinyl]propoxy}-8-ureido-3,4-dihydrocarbostyril hydrochloride, reference compound]
Kb [2, 5]: 10.7 nM | Halothane anesthesia increasing activity / central nervous controlling effect in words [1]: different Halothane anesthesia increasing activity as compared with control | Time (minutes) between introduction of anesthesia and waking (righting reflex) [1]: 9.1 min

Cc1ccccc1N1CCN(CC(O)COc2ccc(NS(C)(=O)=O)c3c2CCC(=O)N3)CC1 (stereo not drawn) [T, 8-Methanesulfonylamino-5-{2-hydroxy-3-[4-(2-methylphenyl)-1-piperazinyl]propoxy}-3,4-dihydro-carbostyril, reference compound]
Kb [2, 5]: 15.8 nM | Halothane anesthesia increasing activity / central nervous controlling effect in words [1]: different Halothane anesthesia increasing activity as compared with control | Time (minutes) between introduction of anesthesia and waking (righting reflex) [1]: 8.9 min
